From ChEMBL document CHEMBL4177722, “Small molecule inhibitors of anthrax edema factor” (Bioorg Med Chem Lett, 2018)

Columns and labels:
[1] = molecular target: T1, Calmodulin-sensitive adenylate cyclase (Bacillus anthracis, UniProt P40136); test: Inactivation of Bacillus anthracis edema factor in presence of CaM incubated for 10 to 240 mins by EnzChek pyrophosphate assay
T1 sequence (P40136 whole entry): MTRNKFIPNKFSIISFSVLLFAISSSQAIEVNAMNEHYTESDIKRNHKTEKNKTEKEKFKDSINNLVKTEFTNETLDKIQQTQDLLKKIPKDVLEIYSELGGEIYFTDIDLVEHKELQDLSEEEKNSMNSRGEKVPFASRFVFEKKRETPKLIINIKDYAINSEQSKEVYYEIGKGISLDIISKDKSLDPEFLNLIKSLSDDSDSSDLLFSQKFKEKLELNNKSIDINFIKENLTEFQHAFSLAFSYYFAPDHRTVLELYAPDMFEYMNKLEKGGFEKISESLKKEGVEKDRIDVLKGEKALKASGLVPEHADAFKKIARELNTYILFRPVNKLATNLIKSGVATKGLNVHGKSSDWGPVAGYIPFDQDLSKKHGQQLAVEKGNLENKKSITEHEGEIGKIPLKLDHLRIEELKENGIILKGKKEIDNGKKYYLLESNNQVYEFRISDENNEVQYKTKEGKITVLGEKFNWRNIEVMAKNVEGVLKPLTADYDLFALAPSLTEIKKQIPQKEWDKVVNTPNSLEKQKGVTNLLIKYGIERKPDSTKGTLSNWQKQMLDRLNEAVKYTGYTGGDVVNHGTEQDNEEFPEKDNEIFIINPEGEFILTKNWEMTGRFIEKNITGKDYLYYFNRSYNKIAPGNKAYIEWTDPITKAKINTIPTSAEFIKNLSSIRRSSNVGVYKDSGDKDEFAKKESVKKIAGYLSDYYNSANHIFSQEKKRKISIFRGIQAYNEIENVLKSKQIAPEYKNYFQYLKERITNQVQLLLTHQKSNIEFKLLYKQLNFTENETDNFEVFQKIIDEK

[2] = molecular target: T2, Calmodulin-sensitive adenylate cyclase (Bacillus anthracis) (UniProt P40136); test: Inactivation of Bacillus anthracis edema factor assessed as inactivation rate constant in presence of CaM incubated for 10 to 240 mins by EnzChek pyrophosphate assay
T2 sequence (whole entry): T1 sequence (P40136 whole entry)

[3] = (§1) Cytotoxicity against mouse RAW264.7 cells assessed a reduction in cell viability incubated for 24 hrs in presence of 10% FBS by MTT assay; type: cell-based; settings: RAW264.7 cells
[4] = molecular target: T2, Calmodulin-sensitive adenylate cyclase (Bacillus anthracis); test: Inactivation of Bacillus anthracis edema factor assessed as Kinact/Ki ratio in presence of CaM incubated for 10 to 240 mins by EnzChek pyrophosphate assay relative to FSBA
[5] = molecular target: T2, Calmodulin-sensitive adenylate cyclase (Bacillus anthracis); test: Inactivation of Bacillus anthracis edema factor assessed as Kinact/Ki ratio in presence of CaM incubated for 10 to 240 mins by EnzChek pyrophosphate assay
[6] = system: RAW264.7; test: Cytotoxicity against mouse RAW264.7 cells assessed a reduction in cell viability incubated for 24 hrs in absence of 10% FBS by MTT assay; type: cell-based; settings: raw264.7, 24 h
[7] = Stability in C57BL/6 mouse plasma assessed as half life at 10 uM by LC-MS method; type: ADME, cell-free, C57B/6
[8] = system: RAW264.7; test: as §1; type: cell-based; settings: raw264.7, 24 h
[9] = molecular target: T3, Inhibitor of nuclear factor kappa-B kinase subunit beta (Homo sapiens) (UniProt O14920); test: Inhibition of human IKKbeta at 10 uM by ADP-Glo kinase assay
T3 sequence (whole entry): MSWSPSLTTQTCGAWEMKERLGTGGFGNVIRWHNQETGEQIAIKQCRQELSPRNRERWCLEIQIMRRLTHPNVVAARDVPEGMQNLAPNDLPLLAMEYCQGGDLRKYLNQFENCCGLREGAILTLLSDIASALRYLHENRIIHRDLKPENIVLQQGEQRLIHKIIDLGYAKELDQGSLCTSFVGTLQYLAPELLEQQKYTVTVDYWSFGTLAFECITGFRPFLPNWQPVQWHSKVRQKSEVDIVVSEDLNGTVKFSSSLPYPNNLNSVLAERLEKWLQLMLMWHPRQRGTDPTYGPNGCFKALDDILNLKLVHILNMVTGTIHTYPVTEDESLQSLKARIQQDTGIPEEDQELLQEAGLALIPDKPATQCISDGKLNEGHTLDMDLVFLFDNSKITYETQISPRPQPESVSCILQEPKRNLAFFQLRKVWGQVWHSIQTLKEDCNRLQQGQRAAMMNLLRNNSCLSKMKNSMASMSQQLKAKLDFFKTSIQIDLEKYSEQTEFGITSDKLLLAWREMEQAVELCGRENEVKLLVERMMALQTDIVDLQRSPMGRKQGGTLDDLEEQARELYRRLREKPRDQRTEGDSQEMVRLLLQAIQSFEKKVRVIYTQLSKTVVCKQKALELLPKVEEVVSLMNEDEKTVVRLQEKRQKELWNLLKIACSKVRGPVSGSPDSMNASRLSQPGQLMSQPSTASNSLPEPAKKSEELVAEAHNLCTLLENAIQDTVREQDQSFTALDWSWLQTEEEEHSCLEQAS

[10] = molecular target: Casein kinase I isoform alpha (Homo sapiens) (UniProt P48729); test: Inhibition of human CK1a1 at 10 uM by ADP-Glo kinase assay
[11] = molecular target: Mitogen-activated protein kinase 14 (Homo sapiens) (UniProt Q16539); test: Inhibition of human p38alpha at 10 uM by ADP-Glo kinase assay
[12] = molecular target: Misshapen-like kinase 1 (Homo sapiens) (UniProt Q8N4C8); test: Inhibition of human MINK at 10 uM by ADP-Glo kinase assay
[13] = molecular target: RAC-alpha serine/threonine-protein kinase (Homo sapiens) (UniProt P31749); test: Inhibition of human AKT1 at 10 uM by ADP-Glo kinase assay
[14] = molecular target: Casein kinase I isoform gamma-1 (Homo sapiens) (UniProt Q9HCP0); test: Inhibition of human CK1g1 at 10 uM by ADP-Glo kinase assay
[15] = molecular target: Casein kinase II subunit alpha (Homo sapiens) (UniProt P68400); test: Inhibition of human CK2a1 at 10 uM by ADP-Glo kinase assay
[16] = molecular target: T2, Calmodulin-sensitive adenylate cyclase (Bacillus anthracis); test: Irreversible inactivation of Bacillus anthracis edema factor pre-incubated for 90 mins followed by drug filtration by EnzChek pyrophosphate assay

Sequence of Misshapen-like kinase 1 (Homo sapiens) (Q8N4C8 whole entry, looked up): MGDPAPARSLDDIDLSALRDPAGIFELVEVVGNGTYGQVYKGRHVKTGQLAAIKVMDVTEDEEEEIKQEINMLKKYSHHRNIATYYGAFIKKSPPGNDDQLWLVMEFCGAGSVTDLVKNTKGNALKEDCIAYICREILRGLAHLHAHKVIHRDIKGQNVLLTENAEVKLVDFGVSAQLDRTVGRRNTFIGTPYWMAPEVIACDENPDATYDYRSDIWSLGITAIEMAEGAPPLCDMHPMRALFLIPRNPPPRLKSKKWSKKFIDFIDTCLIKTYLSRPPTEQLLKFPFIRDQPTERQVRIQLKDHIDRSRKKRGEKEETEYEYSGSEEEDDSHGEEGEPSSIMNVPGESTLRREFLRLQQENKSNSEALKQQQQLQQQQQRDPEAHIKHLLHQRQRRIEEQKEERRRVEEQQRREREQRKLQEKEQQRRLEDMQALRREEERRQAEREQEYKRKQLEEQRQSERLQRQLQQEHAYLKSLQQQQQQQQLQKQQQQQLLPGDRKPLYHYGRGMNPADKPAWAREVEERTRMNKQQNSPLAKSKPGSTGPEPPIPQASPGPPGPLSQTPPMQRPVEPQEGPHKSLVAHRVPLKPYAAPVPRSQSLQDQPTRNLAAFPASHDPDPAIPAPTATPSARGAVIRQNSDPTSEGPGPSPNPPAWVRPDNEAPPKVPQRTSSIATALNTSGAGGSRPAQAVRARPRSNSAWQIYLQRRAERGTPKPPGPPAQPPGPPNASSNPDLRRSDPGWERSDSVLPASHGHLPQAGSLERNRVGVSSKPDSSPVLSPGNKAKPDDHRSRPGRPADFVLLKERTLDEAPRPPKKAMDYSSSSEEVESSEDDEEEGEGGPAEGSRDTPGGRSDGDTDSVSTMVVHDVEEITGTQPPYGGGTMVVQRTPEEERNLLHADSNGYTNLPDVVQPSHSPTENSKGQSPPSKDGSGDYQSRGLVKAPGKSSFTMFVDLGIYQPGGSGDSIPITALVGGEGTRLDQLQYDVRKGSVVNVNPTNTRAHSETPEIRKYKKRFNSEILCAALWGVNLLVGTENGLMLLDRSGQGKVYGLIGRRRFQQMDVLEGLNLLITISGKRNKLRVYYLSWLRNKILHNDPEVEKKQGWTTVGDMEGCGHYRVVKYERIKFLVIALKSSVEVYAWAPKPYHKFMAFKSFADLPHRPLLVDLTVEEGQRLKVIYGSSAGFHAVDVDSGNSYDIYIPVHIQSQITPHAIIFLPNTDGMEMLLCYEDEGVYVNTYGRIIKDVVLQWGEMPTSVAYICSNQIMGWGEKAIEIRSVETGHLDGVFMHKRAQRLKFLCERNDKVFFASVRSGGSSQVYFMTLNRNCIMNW
Sequence of Mitogen-activated protein kinase 14 (Homo sapiens) (Q16539 whole entry): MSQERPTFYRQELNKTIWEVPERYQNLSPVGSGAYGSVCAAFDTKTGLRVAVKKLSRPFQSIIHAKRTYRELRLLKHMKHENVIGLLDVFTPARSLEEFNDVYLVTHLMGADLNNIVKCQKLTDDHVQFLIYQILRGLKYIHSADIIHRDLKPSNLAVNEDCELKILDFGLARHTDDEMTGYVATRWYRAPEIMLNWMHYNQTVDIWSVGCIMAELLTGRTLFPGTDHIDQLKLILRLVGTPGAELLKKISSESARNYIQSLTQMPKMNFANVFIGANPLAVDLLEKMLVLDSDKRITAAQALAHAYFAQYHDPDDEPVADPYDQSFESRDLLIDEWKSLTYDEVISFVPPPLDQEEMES
Sequence of Casein kinase I isoform alpha (Homo sapiens) (P48729 2-337 limits assumed): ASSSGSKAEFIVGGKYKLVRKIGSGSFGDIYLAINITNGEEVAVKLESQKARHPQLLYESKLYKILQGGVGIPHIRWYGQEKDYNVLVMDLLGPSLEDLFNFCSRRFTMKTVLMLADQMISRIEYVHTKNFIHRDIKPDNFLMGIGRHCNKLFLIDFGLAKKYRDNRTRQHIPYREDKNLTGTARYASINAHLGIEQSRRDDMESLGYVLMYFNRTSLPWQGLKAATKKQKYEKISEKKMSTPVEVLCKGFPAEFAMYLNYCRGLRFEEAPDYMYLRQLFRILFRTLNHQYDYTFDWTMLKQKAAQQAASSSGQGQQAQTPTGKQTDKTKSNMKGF
Sequence of RAC-alpha serine/threonine-protein kinase (Homo sapiens) (P31749 whole entry, canonical isoform): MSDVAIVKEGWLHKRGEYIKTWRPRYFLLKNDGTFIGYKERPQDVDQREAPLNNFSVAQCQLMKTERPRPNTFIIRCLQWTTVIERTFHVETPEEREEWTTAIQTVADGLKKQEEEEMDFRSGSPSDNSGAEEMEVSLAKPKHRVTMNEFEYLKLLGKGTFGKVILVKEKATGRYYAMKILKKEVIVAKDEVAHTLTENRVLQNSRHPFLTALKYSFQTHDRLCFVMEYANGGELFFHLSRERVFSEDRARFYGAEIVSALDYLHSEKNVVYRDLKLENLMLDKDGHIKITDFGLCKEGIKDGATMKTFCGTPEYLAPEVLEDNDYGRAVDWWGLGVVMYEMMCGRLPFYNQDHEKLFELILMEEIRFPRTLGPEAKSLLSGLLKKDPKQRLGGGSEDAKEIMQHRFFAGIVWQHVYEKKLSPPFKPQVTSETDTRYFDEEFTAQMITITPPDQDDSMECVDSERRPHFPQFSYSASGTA
Sequence of Casein kinase II subunit alpha (Homo sapiens) (P68400 whole entry, looked up): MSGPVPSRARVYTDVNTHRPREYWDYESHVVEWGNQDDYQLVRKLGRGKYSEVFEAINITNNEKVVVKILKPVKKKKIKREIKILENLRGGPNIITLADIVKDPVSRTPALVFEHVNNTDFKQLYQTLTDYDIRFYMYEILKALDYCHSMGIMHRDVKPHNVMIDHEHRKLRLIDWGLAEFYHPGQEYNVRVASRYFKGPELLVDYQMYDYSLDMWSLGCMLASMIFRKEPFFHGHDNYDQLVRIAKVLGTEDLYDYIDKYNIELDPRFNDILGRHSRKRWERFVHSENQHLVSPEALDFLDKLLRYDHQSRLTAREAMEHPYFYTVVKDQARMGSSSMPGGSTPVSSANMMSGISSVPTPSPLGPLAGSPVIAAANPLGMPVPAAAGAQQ
Sequence of Casein kinase I isoform gamma-1 (Homo sapiens) (Q9HCP0 whole entry, looked up, canonical isoform): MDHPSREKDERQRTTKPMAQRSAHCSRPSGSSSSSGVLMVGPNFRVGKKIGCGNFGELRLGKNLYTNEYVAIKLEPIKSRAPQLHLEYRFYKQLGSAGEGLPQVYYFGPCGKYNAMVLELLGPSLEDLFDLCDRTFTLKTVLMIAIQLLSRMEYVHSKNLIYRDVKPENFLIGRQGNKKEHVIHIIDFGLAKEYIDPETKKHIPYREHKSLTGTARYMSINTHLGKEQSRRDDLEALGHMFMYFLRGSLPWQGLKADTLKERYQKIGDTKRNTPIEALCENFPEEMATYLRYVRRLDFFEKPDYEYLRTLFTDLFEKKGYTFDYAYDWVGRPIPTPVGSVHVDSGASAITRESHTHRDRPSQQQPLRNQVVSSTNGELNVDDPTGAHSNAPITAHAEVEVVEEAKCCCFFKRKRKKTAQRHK

In the case of `Nc1cc(OCCNCc2ccc(S(=O)(=O)F)cc2)ccn1`, the Ki [1] is reported as 49.6 µM, the Kinact [2] is reported as 0.029 min⁻¹ and the CC50 at 24 h [3] is reported as greater than 100 µM. For the same compound, the Ratio [4] was 0.7, the Ratio [5] was 9.6 and the Activity [6] was “Non-Toxic”.
With `Cc1nc(N)c2ncn(C3CCN(C(=O)c4ccc(S(=O)(=O)F)cc4)CC3)c2n1` the Ki [1] was 16.5 µM, the Kinact [2] was 0.062 min⁻¹ and the CC50 at 24 h [3] was greater than 100 µM. The Ratio [4] was 4.7, the Ratio [5] was 62.8 and the Activity [6] was “Non-Toxic”.
Compound `Nc1ncnc2c1ncn2CCCNC(=O)c1ccc(S(=O)(=O)F)cc1` has a Ki [1] of 37.7 µM, a Kinact [2] of 0.012 min⁻¹ and a CC50 at 24 h [3] greater than 100 µM. For the same compound, the Ratio [4] was 0.4, the Ratio [5] was 5.3 and the Activity [6] was “Non-Toxic”.
`Nc1ncnc2c1ncn2CCOC(=O)c1ccc(S(=O)(=O)F)cc1` showed a Ki [1] of 25.9 µM, a Kinact [2] of 0.011 min⁻¹ and a CC50 at 24 h [3] greater than 100 µM. For the same compound, the Ratio [4] was 0.5, the Ratio [5] was 6.9 and the Activity [6] was “Non-Toxic”.
For `Cc1cc(OC2CCN(Cc3ccc(S(=O)(=O)F)cc3)CC2)cc(N)n1`, the Ki [1] was 42.2 µM, the Kinact [2] was 0.02 min⁻¹ and the CC50 at 24 h [3] was greater than 100 µM. The Ratio [4] was 0.6, the Ratio [5] was 7.9 and the Activity [6] was “Non-Toxic”.
For `Nc1ncnc2c1ncn2[C@@H]1CCCN(C(=O)c2ccc(S(=O)(=O)F)cc2)C1`, the Ki [1] was 96.5 µM, the Kinact [2] was 0.039 min⁻¹ and the CC50 at 24 h [3] was greater than 100 µM. For the same compound, the Ratio [4] was 0.5, the Ratio [5] was 6.7 and the Activity [6] was “Non-Toxic”.
`Nc1cc(OCCNC(=O)c2ccc(S(=O)(=O)F)cc2)ccn1` showed a Ki [1] of 127 µM, a Kinact [2] of 0.028 min⁻¹ and a CC50 at 24 h [3] greater than 100 µM. The Ratio [4] was 0.3, the Ratio [5] was 3.6 and the Activity [6] was “Non-Toxic”.
Work on `Nc1cc(OCCCNC(=O)c2ccc(S(=O)(=O)F)cc2)ccn1` yielded a Ki [1] of 88.1 µM, a Kinact [2] of 0.043 min⁻¹ and a CC50 at 24 h [3] greater than 100 µM. The Ratio [4] was 0.6, the Ratio [5] was 8.1 and the Activity [6] was “Non-Toxic”.
For `Nc1cc(OCCCNCc2ccc(S(=O)(=O)F)cc2)ccn1`, the Ki [1] was 222 µM, the Kinact [2] was 0.063 min⁻¹ and the CC50 at 24 h [3] was greater than 100 µM. For the same compound, the Ratio [4] was 0.4, the Ratio [5] was 4.7 and the Activity [6] was “Non-Toxic”.
In the case of `CCOC(=O)C1=C[C@]2(CC)CCCN3CCc4c(n1c1ccccc41)[C@@H]32` [VINPOCETINE], the half-life at 10 µM [7] is reported as 13.1 h.
For `Cc1nc(N)cc(OCCNC(=O)c2ccc(S(=O)(=O)F)cc2)n1`, the Ki [1] was 286 µM, the Kinact [2] was 0.158 min⁻¹ and the CC50 at 24 h [3] was greater than 100 µM. The Ratio [4] was 0.7, the Ratio [5] was 9.2 and the Activity [6] was “Non-Toxic”.
Compound `Cc1nc(N)cc(OC2CCN(C(=O)c3ccc(S(=O)(=O)F)cc3)CC2)n1` has a Ki [1] of 27.6 µM, a Kinact [2] of 0.112 min⁻¹ and a CC50 at 24 h [3] greater than 100 µM. For the same compound, the Ratio [4] was 5.1, the Ratio [5] was 67.8 and the Activity [6] was “Non-Toxic”.
`Cc1nc(N)c2cnn(C3CCN(C(=O)c4ccc(S(=O)(=O)F)cc4)CC3)c2n1` showed a Ki [1] of 2.1 µM, a Kinact [2] of 0.072 min⁻¹ and a CC50 at 24 h [3] greater than 100 µM. The Ratio [4] was 43.3, the Ratio [5] was 581 and the Activity [6] was “Non-Toxic”. The half-life at 10 µM [7] was 1.2 h.
Work on `Nc1ncnc2c1ncn2C1CCN(C(=O)c2ccc(S(=O)(=O)F)cc2)CC1` yielded a Ki [1] of 9.4 µM, a Kinact [2] of 0.01 min⁻¹ and a CC50 at 24 h [3] greater than 100 µM. The Ratio [4] was 1.3, the Ratio [5] was 18 and the Activity [6] was “Non-Toxic”.
Compound `Nc1cc(OCc2ccc(S(=O)(=O)F)cc2)ccn1` has a Ki [1] of 955 µM, a Kinact [2] of 0.198 min⁻¹ and a CC50 [8] of 86 µM. For the same compound, the Ratio [4] was 0.3, the Ratio [5] was 3.5 and the Activity [6] was “Non-Toxic”.
For `CN[C@@H]1C[C@H]2O[C@@](C)([C@@H]1OC)n1c3ccccc3c3c4c(c5c6ccccc6n2c5c31)C(=O)NC4`, the inhibition [9] was 64%, the inhibition [10] was 51% and the inhibition [11] was 11%. For the same compound, the inhibition [12] was 98%, the inhibition [13] was 61% and the inhibition [14] was 38%. For the same compound, the inhibition [15] was 64%.
`Cc1nc(N)c2cnn(C3CCN(Cc4ccc(S(=O)(=O)F)cc4)CC3)c2n1` gave a Ki [1] of 4.6 µM, a Kinact [2] of 0.052 min⁻¹ and a CC50 at 24 h [3] greater than 100 µM. For the same compound, the Ratio [4] was 14.2, the Ratio [5] was 190 and the Activity [6] was “Non-Toxic”. For the same compound, the half-life at 10 µM [7] was 1.2 h.
Work on `Nc1cc(OC2CN(C(=O)c3ccc(S(=O)(=O)F)cc3)C2)ccn1` yielded a Ki [1] of 10.9 µM, a Kinact [2] of 0.003 min⁻¹ and a Ratio [4] of 0.4. For the same compound, the Ratio [5] was 4.9 and the Activity [6] was “Non-Toxic”.
With `Nc1ncnc2c1ncn2[C@@H]1O[C@H](COC(=O)c2ccc(S(=O)(=O)F)cc2)[C@@H](O)[C@H]1O` the Ki [1] was 18.4 µM, the Kinact [2] was 0.015 min⁻¹ and the inhibition [16] was “Dose-dependent effect”. The CC50 at 24 h [3] was greater than 100 µM, the Ratio [5] was 13.4 and the Activity [6] was “Non-Toxic”.
In the case of `Cc1nc(N)c2ncn(C3CCN(Cc4ccc(S(=O)(=O)F)cc4)CC3)c2n1`, the Ki [1] is reported as 14.7 µM, the Kinact [2] is reported as 0.028 min⁻¹ and the CC50 at 24 h [3] is reported as greater than 100 µM. For the same compound, the Ratio [4] was 2.3, the Ratio [5] was 31.2 and the Activity [6] was “Non-Toxic”.
With `Nc1cc(O[C@@H]2CCN(C(=O)c3ccc(S(=O)(=O)F)cc3)C2)ccn1` the Ki [1] was 38.9 µM, the Kinact [2] was 0.008 min⁻¹ and the Ratio [4] was 0.3. For the same compound, the Ratio [5] was 3.5 and the Activity [6] was “Non-Toxic”.
With `Nc1cc(OC2CCN(C(=O)c3ccc(S(=O)(=O)F)cc3)CC2)ccn1` the Kinact [2] was 0.049 to 0.069 min⁻¹, the CC50 at 24 h [3] was greater than 100 µM and the Ratio [4] was 0.4 to 1.4. For the same compound, the Ratio [5] was 5.8 to 19.3, the Activity [6] was “Non-Toxic” and the half-life at 10 µM [7] was 0.66 h.
In the case of `Nc1ncnc2c1cnn2C1CCN(C(=O)c2ccc(S(=O)(=O)F)cc2)CC1`, the Ki [1] is reported as 3.7 µM, the Kinact [2] is reported as 0.26 min⁻¹ and the CC50 at 24 h [3] is reported as greater than 100 µM. The Ratio [4] was 86.7, the Ratio [5] was 1160 and the Activity [6] was “Non-Toxic”.
`Cc1nc(N)c2cnn(CCCNC(=O)c3ccc(S(=O)(=O)F)cc3)c2n1` showed a Ki [1] of 34.8 µM, a Kinact [2] of 0.121 min⁻¹ and a CC50 at 24 h [3] greater than 100 µM. For the same compound, the Ratio [4] was 4.3, the Ratio [5] was 58 and the Activity [6] was “Non-Toxic”.
